The values below come from publication PMC9906638, “AlphaFold accelerates artificial intelligence powered drug discovery: efficient discovery of a novel CDK20 small molecule inhibitor” (Chemical Science, 2023).

Read-outs that look alike come from different tables or passages of the source. Where only a bound is given, the exact number is not on record here.

Assay [1] concerns the target T1, CDK20 (Homo sapiens, UniProt Q8IZL9).
T1 construct: purchased DiscoverX/Eurofins (KINOMEscan service); host or cells: HEK-293
As to the kind of experiment: CDK20 human CMGC kinase binding assay (KINOMEscan). The conditions noted are these: for Kd: CDK20 kinase binding assay, mean ± SD of three independent experiments; for fold improvement in binding affinity compared to ISM042-2-001: ratio of Kd values. How it is done:
CDK20 human CMGC kinase binding assay
The assay was available as a product of the KINOMEscan service from DiscoverX/Eurofins. In brief, CDK20 proteins were produced in HEK-293 cells and subsequently tagged with DNA for qPCR detection. […] The liganded beads were blocked with excess biotin and washed with blocking buffer (SeaBlock (Pierce), 1% BSA, 0.05% Tween 20, and 1 mM DTT) to remove the unbound ligand and to reduce non-specific binding. […] Binding constants (Kds) were determined using an 11-point 3-fold compound dilution series with three DMSO control points. […] The compounds were then diluted directly into the assays such that the final concentration of DMSO was 0.9%. All reactions were performed in polypropylene 384-well plates. Each has a final volume of 0.02 ml. […] The kinase concentration in the eluates was measured by qPCR. Kds were calculated with a standard dose–response curve. The curves were fitted using a non-linear least squares fit with the Levenberg–Marquardt algorithm.

Assay [2] deals with T2, CDK20/CycT1 (Homo sapiens, UniProt Q8IZL9).
T2 construct: purchased Reaction Biology Corp. (33PanQinase Activity Assay service)
T2 sequence (Q8IZL9 whole entry): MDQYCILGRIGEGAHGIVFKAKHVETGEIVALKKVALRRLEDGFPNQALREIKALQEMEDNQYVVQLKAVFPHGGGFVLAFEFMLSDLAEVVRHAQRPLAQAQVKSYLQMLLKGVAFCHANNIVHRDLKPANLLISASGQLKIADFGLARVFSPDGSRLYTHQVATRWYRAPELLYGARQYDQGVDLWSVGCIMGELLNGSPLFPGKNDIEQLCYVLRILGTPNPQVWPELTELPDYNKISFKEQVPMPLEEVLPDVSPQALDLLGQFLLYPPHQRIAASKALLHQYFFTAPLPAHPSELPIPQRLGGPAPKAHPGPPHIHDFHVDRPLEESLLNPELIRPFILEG
T2 sequence (O60563 whole entry partner): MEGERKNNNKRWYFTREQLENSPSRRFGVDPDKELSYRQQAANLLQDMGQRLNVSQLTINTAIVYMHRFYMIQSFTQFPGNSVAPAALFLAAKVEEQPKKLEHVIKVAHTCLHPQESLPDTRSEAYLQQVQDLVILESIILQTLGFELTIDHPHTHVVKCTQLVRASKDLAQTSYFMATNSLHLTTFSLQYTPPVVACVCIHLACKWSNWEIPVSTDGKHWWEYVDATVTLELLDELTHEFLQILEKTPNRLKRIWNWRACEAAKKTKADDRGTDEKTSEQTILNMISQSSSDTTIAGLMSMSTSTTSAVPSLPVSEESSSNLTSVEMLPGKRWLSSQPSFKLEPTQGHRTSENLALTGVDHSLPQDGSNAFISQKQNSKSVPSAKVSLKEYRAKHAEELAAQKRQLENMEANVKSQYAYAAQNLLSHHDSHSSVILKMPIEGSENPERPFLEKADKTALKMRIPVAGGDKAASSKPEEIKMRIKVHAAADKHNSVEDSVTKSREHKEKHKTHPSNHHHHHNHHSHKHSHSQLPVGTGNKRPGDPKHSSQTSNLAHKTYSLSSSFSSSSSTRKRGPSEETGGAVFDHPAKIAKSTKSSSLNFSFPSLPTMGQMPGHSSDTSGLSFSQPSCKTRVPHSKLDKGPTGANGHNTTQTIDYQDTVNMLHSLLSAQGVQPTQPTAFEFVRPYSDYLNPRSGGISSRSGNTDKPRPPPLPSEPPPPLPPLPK
As to the kind of experiment: CDK20 kinase activity assay (radiometric 33PanQinase). Format: biochemical. How it is done:
CDK20 kinase activity assay
A radiometric protein kinase assay ([33]PanQinase® ActivityAssay, available as a service product from Reaction Biology Corp.) was used for measuring the kinase activity of the CDK20 kinases. This assay was performed in 96-well FlashPlates™ from PerkinElmer (Boston, MA, USA) in a 50 μl reaction volume. The reaction cocktail was pipetted in four steps in the following order: (a) 25 μl of assay buffer (standard buffer/[γ-^33P]-ATP); (b) 10 μl of ATP solution (in H2O); (c) 5 μl of test compound (in 10% DMSO); (d) 10 μl of enzyme/substrate mixture. The assay for CDK20 kinase contained 70 mM HEPES-NaOH pH 7.5, 3 mM MgCl2, 3 mM MnCl2, 3 μM Na-orthovanadate, 1.2 mM DTT, 50 μg ml^−1 PEG20000, 1.0 μM ATP [γ-[33]P],-ATP (approx. 7 × 10^5 cpm per well), and 200 ng/50 μl kinase protein, and the substrate was 4.0 μg/50 μl. The compounds were dissolved to 1 × 10^−3 M in volumes of 100% DMSO. The 1 × 10^−3 M stock solutions were subjected to a serial, semi-logarithmic dilution using 100% DMSO as a solvent. The final volume of the assay was 50 μL All compounds were tested at 10 final assay concentrations in the range from 1 × 10^−5 M to 3 × 10^−10 M. The final DMSO concentration in the reaction cocktails was 1% in all cases. The “low control” was defined as the value that reflects unspecific binding of radioactivity to the plate in the absence of a protein kinase but in the presence of the substrate. The “high control” was defined as the full activity in the absence of any inhibitor. The difference between high and low controls was taken as 100% activity. As part of the data evaluation the low control value from a particular plate was subtracted from the high control value as well as from all 80 “compound values” of the corresponding plate.
The residual activities for each concentration and the compound’s IC50 values were calculated using Quattro Workflow V3.1.1 (Quattro Research GmbH, Munich, Germany; http://www.quattro-research.com/). […] The fitting method used was a least-squares fit.

Assay [3] addresses T2, CDK20/CycT1. Also on record: method as in doi:10.1158/1538-7445.AM2016-2821.
Assay [4] addresses CDK20. The settings on record: cited from earlier work.
Another assay concerns HEK293. The experiment in a line: Cell viability assay (Celltiter Glo), counter screen HEK293. Format: cell-based. The settings on record: Homo sapiens, HEK293, 72 h; counter screen cell line; 3 days incubation; read-out: anti-proliferation IC50 in HEK293. How it is done: (§1) The Huh7 and HEK293 cells were maintained in DMEM with 10% FBS and 1% streptomycin and penicillin in 5% CO2. When the confluence of these two cell lines reached 80–90%, cells were harvested and resuspended, and the proper cells were added into a 384-well plate as below: Huh-7: 650 cells per well; HEK-293 : 300 cells per well. The final testing concentrations of the compounds were: 10 000, 3333, 1111, 370, 123, 41.2, 13.7, 4.57, 1.52, and 0.51 nM. The cells were incubated in a 37 °C, 5% CO2 incubator for 3 days, and then a reagent was added (Celltiter Glo assay kit) to the cells for testing and a Multiplate reader was used to record the chemiluminescence value. And GraphPad Prism 9 software was used to calculate IC50 and plot the effect–dose curve of compounds. The assays were conducted at Pharmaron Inc. in a fee-for-service mode.
For orientation: In ATP-based viability assays light output follows the ATP content of the culture.

Another assay has as its system Huh7. As to the kind of experiment: Cell viability assay (Celltiter Glo), Huh7. Format: cell-based. The settings on record: Homo sapiens, Huh-7, 72 h; HCC cell line with CDK20 overexpression; 3 days incubation; read-out: anti-proliferation IC50 in Huh7. How it is done:
as §1

[5] abbreviates: CDK20 kinase activity assay, 1.0 μM ATP, values with SD from three independent experiments, read-out: CDK20/CycT1 IC50.
Setting [6] is: read-out: CDK20/CycT1 IC50; poster of Mueller et al.; cited from earlier work.

T1 sequence (Q8IZL9 whole entry): as the sequence (Q8IZL9 whole entry) above

Usually Kd stands for the free concentration of one partner at which half of the binding sites on the other are occupied at equilibrium, for simple one-to-one binding. At CDK20 [1], `c1cc(-n2cc(C3COC3)nn2)cc(NC2CC2)n1` [ISM042-2-009] returned a dissociation constant (Kd) greater than 30 µM.

In turn, `CCc1ccc(-c2cccc3nc(NC4CCCC4)[nH]c23)[nH]c1=O` [ISM042-2-015] gave a Kd on CDK20 [1] greater than 30 µM.

Take `CN1CCC(NC(=O)c2cc(Nc3ncc4ccccc4n3)c[nH]2)CC1` [ISM042-2-055]: the Kd on CDK20 [1] is 14.3 ± 1.7 µM. Besides, the IC50 on CDK20/CycT1 [2] (setting [5]) is 4.08 ± 0.575 µM.

Take `CNC(=O)c1cc(Nc2ncc3ccc(=O)n(C4CCCC4)c3n2)c[nH]1` [ISM042-2-049]: on CDK20 [1], the Kd was found to be 0.36 ± 0.0141 µM and the “fold improvement in binding affinity compared to ISM042-2-001” value stood at 24 fold. In addition, on CDK20/CycT1 [2] (setting [5]), the IC50 was determined as 0.468 ± 0.006 µM.

For the compound `CC(=O)c1c(C)c2cnc(Nc3ccc(N4CCNCC4)cn3)nc2n(C2CCCC2)c1=O` [Palbociclib], the IC50 on CDK20/CycT1 [3] (poster of Mueller et al.; read-out: CDK20/CycT1 IC50; cited from earlier work) was 1.26 µM.

As to `O=C(Nc1ccc2cc(C(=O)Nc3nccs3)ccc2c1)c1ccc(Cl)c(Cl)c1` [AAPK-25], the Kd on CDK20 [4] was 8.02 µM.

Consider `CC(C)(CO)CNCc1ccc(Nc2ncc(SCc3ncc(C(C)(C)C)o3)s2)nc1` [BMS-357075], for which the Kd at CDK20 [4] (disclosed by Eurofins) is 0.056 µM.

As for `CC[C@H](CO)Nc1nc(NCc2ccccc2)c2ncn(C(C)C)c2n1` [Roscovitine], the IC50 on CDK20/CycT1 [3] (setting [6]) was 8.68 µM.

Take `CCc1cnn2c(NCc3ccc[n+]([O-])c3)cc(N3CCCC[C@H]3CCO)nc12` [Dinaciclib]: the IC50 on CDK20/CycT1 [3] (setting [6]) was 2.86 µM.

With `c1cc(-c2nc3cnncc3s2)nc(N[C@H]2CCNC2)n1` [ISM042-2-025], on CDK20 [1], the Kd was greater than 30 µM.

With `CNC(=O)c1cc(Nc2ncc3ccccc3n2)c[nH]1` [ISM042-2-001], the Kd at CDK20 [1] turned out to be 9.2 ± 0.5 µM. The IC50 on CDK20/CycT1 [2] (setting [5]) is greater than 6 µM.

Compound `CN1CCN(CCNC(=O)c2cc(Nc3ncc4ccccc4n3)c[nH]2)CC1` [ISM042-2-053] registered a Kd at CDK20 [1] of 17.7 ± 4.03 µM. Further, on CDK20/CycT1 [2] (setting [5]), the IC50 turned out to be 7.8 ± 0.125 µM.

Regarding `NC(=O)c1cc(N2CCC(F)(F)CC2)nc(-c2cc[nH]n2)n1` [ISM042-2-007], the Kd at CDK20 [1] was greater than 30 µM.

As for `Cc1ccnc(-n2cncc2N2CC3(COC3)C2)n1` [ISM042-2-019], at CDK20 [1], the dissociation constant Kd was greater than 30 µM.

At CDK20 [1], `CN(C)CCNC(=O)c1cc(Nc2ncc3ccccc3n2)c[nH]1` [ISM042-2-052] registered a Kd of 18.7 ± 6.34 µM. Further, the IC50 on CDK20/CycT1 [2] was greater than 6 µM.

At CDK20 [1], `Cn1cc(Oc2ccnc(NC3(C)CC3)c2)cn1` [ISM042-2-004] displayed a Kd greater than 30 µM.

At CDK20 [1], `CNC(=O)c1cccc(Nc2ncc3ccccc3n2)c1` [ISM042-2-050] yielded a Kd of 5.33 ± 1.19 µM. Moreover, the IC50 on CDK20/CycT1 [2] (setting [5]) was found to be 7.1 ± 0.478 µM.

As to `CNC(=O)c1cc(Nc2ncc3ccc(-c4cn[nH]c4)cc3n2)c[nH]1` [ISM042-2-048], the Kd on CDK20 [1] was 0.567 ± 0.256 µM. On CDK20 [1], the “fold improvement in binding affinity compared to ISM042-2-001” value was 15 fold. Besides, the IC50 in the assay on HEK293 came out at 1.71 ± 0.67 µM; at CDK20/CycT1 [2] (setting [5]), 0.0334 ± 0.0226 µM; in the assay with Huh7 it was 0.209 ± 0.0033 µM.
